Data set [1] concerns human osteoblasts and osteocytes. Description: Apoptosis (TUNEL) in transiliac bone biopsies of patients with glucocorticoid-induced osteoporosis. The following applies: two patients. It counts as in vivo. The method, then: Sections were mounted on silane-coated glass slides (Scientific Device Lab, Inc., Des Plains, Ill.), deplasticized and incubated in 10 mM citrate buffer, pH 7.6, in a microwave oven at 98° C. for 5 minutes. Slides were then incubated with 0.5% pepsin for 30 minutes at 37° C. Apoptotic cells were detected by the TUNEL reaction (transferase-mediated biotin-dUTP nick end-labeling) using Klenow terminal deoxynucleotidyl transferase (Oncor, Gaithersburg, Md.) in sections counterstained with 1% methyl green. The TUNEL reaction was noted within cell nuclei and the cells whose nuclei were clearly brown from the peroxidase-labeled anti-digoxigenin antibody instead of the blue-green from the methyl green were interpreted as positive. Plastic-embedded sections of weaned rat mammary tissue were used as a positive control. Negative controls were made by omitting the transferase. Morphological changes characteristic of apoptosis were examined carefully to minimize ambiguity regarding the interpretation of results. With these precautions, TUNEL has been unequivocally associated with apoptosis (19). […] Apoptosis was also assessed in transiliac bone biopsy specimens taken from two patients with glucocorticoid-induced osteoporosis (receiving 15 to 25 mg/d of prednisone for 3 to 6 yr) and from 12 age-, sex- and race-matched controls (13). […]

Another data set relates to human cancellous bone. Put plainly: Bone histomorphometry of transiliac bone biopsies of patients. It counts as in vivo. The following applies: two patients. The method, then:
The distal femora and lumbar vertebrae were fixed in 4° C. Millonig's phosphate-buffered 10% formalin, pH 7.4, embedded undecalcified in methyl methacrylate and stained (7,9,13). The histomorphometric examination was done with a computer and digitizer tablet (OsteoMetrics Inc. Version 3.00, Atlanta, Ga.) interfaced to a Zeiss Axioscope (Carl Zeiss, Inc., Thornwood, N.Y.) with a drawing tube attachment. All cancellous measurements were two-dimensional, confined to the secondary spongiosa and made at ×400 magnification (numerical aperture 0.75). The terminology and units used are those recommended by the Histomorphometry Nomenclature Committee of the American Society for Bone and Mineral Research (14). The trabecular width and osteoid width were measured directly. Trabecular spacing and number were calculated (15). Only TRAPase-positive cells were included in the osteoclast perimeter. The rate of bone formation (μm^2/μm/d) and turnover (%/d) were calculated (7).
Sections were mounted on silane-coated glass slides (Scientific Device Lab, Inc., Des Plains, Ill.), deplasticized and incubated in 10 mM citrate buffer, pH 7.6, in a microwave oven at 98° C. for 5 minutes. Slides were then incubated with 0.5% pepsin for 30 minutes at 37° C. Apoptotic cells were detected by the TUNEL reaction (transferase-mediated biotin-dUTP nick end-labeling) using Klenow terminal deoxynucleotidyl transferase (Oncor, Gaithersburg, Md.) in sections counterstained with 1% methyl green. The TUNEL reaction was noted within cell nuclei and the cells whose nuclei were clearly brown from the peroxidase-labeled anti-digoxigenin antibody instead of the blue-green from the methyl green were interpreted as positive. Plastic-embedded sections of weaned rat mammary tissue were used as a positive control. Negative controls were made by omitting the transferase. Morphological changes characteristic of apoptosis were examined carefully to minimize ambiguity regarding the interpretation of results. With these precautions, TUNEL has been unequivocally associated with apoptosis (19). […] Apoptosis was also assessed in transiliac bone biopsy specimens taken from two patients with glucocorticoid-induced osteoporosis (receiving 15 to 25 mg/d of prednisone for 3 to 6 yr) and from 12 age-, sex- and race-matched controls (13). Two longitudinal sections were examined from each patient and control subject. Osteoblasts were identified as cuboidal cells lining the osteoid-covered trabecular perimeter (7,9,13). Osteocytes were identified inside lacunae in mineralized bone.

“And” between values parts separate entries of the source, which are not always exact repeats. Equal values may be shown once.

From US6660468B1, “Vitro and in vivo models for screening compounds to prevent glucocorticoid-induced bone destruction” (Board of Trustees of the University of Arkansas, priority 1998, dated 2003) come the findings set out here.

Turning to `C[C@]12C=CC(=O)C=C1CC[C@@H]1[C@@H]2C(=O)C[C@@]2(C)[C@H]1CC[C@]2(O)C(=O)CO` [prednisone], the “Apoptosis of osteoclasts or cortical osteocytes” value in data set [1] is reported as “not observed”. In addition, the “Apoptotic osteoblasts in cancellous bone” value in data set [1] (15 to 25 mg/d for 3 to 6 yr, absent in controls) was around 30%. Further, the Cancellous bone area in the data set with human cancellous bone (one value each, normal is 22.4±1.2 SEM) was 11.1% and 8.8%. Moreover, in the data set with human cancellous bone (normal is 0.9±0.2), the Osteoclast perimeter was 0% and 0.4%. Moreover, the Reversal perimeter in the data set on human cancellous bone (normal is 6.9±0.7) is 13.5% and 15.4%. In addition, the Osteoblast perimeter in the data set with human cancellous bone (normal is 7.6±0.4) was 2.1% and 2.3%. Also, in the data set with human cancellous bone (normal is 161±9), the Trabecular width was 62 μm and 118 μm.
